In patent US20190185567A1, “COMBINATIONS FOR THE TREATMENT OF CANCER” (IGNYTA, INC., priority 2016, published 2019):

Tests used:
4T1-Luc2-1A4 cells = experiment: 4T1-Luc2-1A4 mammary fat pad tumor model: tumor burden by caliper and BLI, metastases; type: in vivo, Balb/c mice; settings: once daily for 15 days (Days 3-17); for Day 14 T/C (whole body BLI) / Day 14 median T/C (caliper measurements): p>0.05
Procedure: Female Envigo Balb/c mice (BALB/cAnNHsd) were used in this study. They were 6-7 weeks old on day 1 of the experiment. The animals were fed irradiated Harlan 2918.15 Rodent Diet and water ad libitum. Animals were housed in static cages with Bed-O'Cobs™ bedding inside Biobubble® Clean Rooms that provide H.E.P.A filtered air into the bubble environment at 100 complete air changes per hour. All treatments, imaging, body weight determinations, and tumor measurements were carried out in the bubble environment. The environment was controlled to a temperature range of 70°±2° F. and a humidity range of 30-70%.
4T1-Luc2-1A4 cells were obtained from PerkinElmer. They were grown in RPMI 1640 medium which was modified with 1% 100 mM Na pyruvate, 1% 1M HEPES buffer, 2.5 g/L glucose solution and supplemented with 10% non-heat-inactivated Fetal Bovine Serum (FBS) and 1% 100X Penicillin/Streptomycin/L-Glutamine (PSG). The growth environment was maintained in an incubator with a 5% CO2 atmosphere at 37° C. When expansion was complete, the cells (passage 5) were trypsinized using 0.25% trypsin-EDTA solution. Following cell detachment, the trypsin was inactivated by dilution with complete growth medium and any clumps of cells were separated by pipetting. The cells were centrifuged at 200 rcf for 8 minutes at 8° C., the supernatant was aspirated, and the pellet was re-suspended in cold Dulbecco's Phosphate Buffered Saline (DPBS) by pipetting. An aliquot of the homogeneous cell suspension was diluted in a trypan blue solution and counted using a Luna automated cell counter. The pre-implantation cell viability was 95%. The cell suspension was centrifuged at 200 rcf for 8 minutes at 8° C. The supernatant was aspirated and the cell pellet was re-suspended in cold 50% serum-free medium 50% Matrigel® to generate a final concentration of 1.0E+07 trypan-excluding cells/mL. The cell suspension was maintained on wet ice during implantation. Following implantation, an aliquot of the remaining cells was diluted with a trypan blue solution and counted to determine the post-implantation cell viability (95%).
Test animals were implanted subcutaneously into the mammary fat pad (MFP#4) on Day 0 with 5.0E+05 cells in 50 μL of serum free media in 50% Matrigel® using a 27-gauge needle and 1 mL syringe.
All mice were sorted into study groups based on body weight. The mice were distributed to ensure that the mean body weight for all groups was within 10% of the overall mean for the study population (group range 16.8-17.2 g). Treatment began on Day 3, prior to the tumors being palpable. All mice were dosed 0.2 mL/20 g. • Group 1: Vehicle Control (50% PEG400; 50% oleic acid) PO, once daily for 15 days (Days 3-17); • Group 2: N-[4-[(6,7-dimethoxy-4-quinolinyl)oxy]-3-fluorophenyl]-3-(4-fluorophenyl)-1,2,3,4-tetrahydro-1-(1-methylethyl)-2,4-dioxo-5-pyrimidinecarboxamide, 30 mg/kg PO, once daily for 15 days (Days 3-17); • Group 3: N-[4-[(6,7-dimethoxy-4-quinolinyl)oxy]-3-fluorophenyl]-3-(4-fluorophenyl)-1,2,3,4-tetrahydro-1-(1-methylethyl)-2,4-dioxo-5-pyrimidinecarboxamide, 10 mg/kg PO, once daily for 15 days (Days 3-17); • Group 4: N-[4-[(6,7-dimethoxy-4-quinolinyl)oxy]-3-fluorophenyl]-3-(4-fluorophenyl)-1,2,3,4-tetrahydro-1-(1-methylethyl)-2,4-dioxo-5-pyrimidinecarboxamide, 1 mg/kg PO, once daily for 15 days (Days 3-17); • Group 5: anti-CTLA-4 clone 9D9 antibody, 10 mg/kg IP, every third day for 2 treatments, then a 3 day rest for 2.5 weeks (Days 3, 6, 10, 13, 17) • Group 6: anti-CTLA-4 clone 9D9 antibody, 10 mg/kg IP, every third day for 2 treatments, then a 3 day rest for 2.5 weeks (Days 3, 6, 10, 13, 17), plus N-[4-[(6,7-dimethoxy-4-quinolinyl)oxy]-3-fluorophenyl]-3-(4-fluorophenyl)-1,2,3,4-tetrahydro-1-(1-methylethyl)-2,4-dioxo-5-pyrimidinecarboxamide, 30 mg/kg PO, once daily for 15 days (Days 3-17). […]

[1] = Assessment of side effects (tolerability, mortality, body weight); type: in vivo; settings: once daily for 15 days (Days 3-17); for mean body weight loss: highest at study termination
Procedure: Animals were weighed on each day of treatment. Individual body weights were recorded three times weekly.
In this report, a dosage level is described as tolerated if treatment-related weight loss (during and two weeks after treatment) is <20% and mortality during this period in the absence of potentially lethal tumor burdens is <10%.
Upon death or euthanasia, all animals were necropsied to provide a general assessment of potential cause of death and perhaps target organs for toxicity. The presence or absence of metastases was also noted.

[2] = system: hematopoietic cell subsets; experiment: Hematopoietic cell subset mean percentages in tumor and spleen, subjective comparison to the Control Group; type: in vivo, Balb/c mice; settings: once daily (Days 3-17); for CD45+ cells that expressed PD-L1, increase vs Control Group: spleen

In the case of `COc1cc2nccc(Oc3ccc(NC(=O)c4cn(C(C)C)c(=O)n(-c5ccc(F)cc5)c4=O)cc3F)c2cc1OC` [N-[4-[(6,7-dimethoxy-4-quinolinyl)oxy]-3-fluorophenyl]-3-(4-fluorophenyl)-1,2,3,4-tetrahydro-1-(1-methylethyl)-2,4-dioxo-5-pyrimidinecarboxamide], the “incidence of ex vivo lung metastases” value (4T1-Luc2-1A4 cells; 1 mg/kg PO) is reported as 100%, the tumor free survivors (4T1-Luc2-1A4 cells; 1 mg/kg PO) is reported as 0% and the “incidence of axillary lymph node metastases based on in vivo imaging” value (“incidence … in vivo imaging” below) (4T1-Luc2-1A4 cells; 1 mg/kg PO, 8/14) is reported as 57%. The “Day 14 T/C (whole body BLI)” value (4T1-Luc2-1A4 cells; 1 mg/kg PO) was 139%, the “Day 14 median T/C (caliper measurements)” value (4T1-Luc2-1A4 cells; 1 mg/kg PO) was 131% and the “incidence of ex vivo lung metastases” value (4T1-Luc2-1A4 cells; 10 mg/kg PO) was 100%. For the same compound, the tumor free survivors (4T1-Luc2-1A4 cells; 10 mg/kg PO) was 0%, the “incidence … in vivo imaging” value (4T1-Luc2-1A4 cells; 10 mg/kg PO, 2/14) was 14% and the “Day 14 T/C (whole body BLI)” value (4T1-Luc2-1A4 cells; 10 mg/kg PO) was 133%. For the same compound, the “Day 14 median T/C (caliper measurements)” value (4T1-Luc2-1A4 cells; 10 mg/kg PO) was 100%, the “incidence of ex vivo lung metastases” value (4T1-Luc2-1A4 cells; 30 mg/kg PO) was 100% and the tumor free survivors (4T1-Luc2-1A4 cells; 30 mg/kg PO) was “no tumor free survivors”. The “incidence … in vivo imaging” value (4T1-Luc2-1A4 cells; 30 mg/kg PO, 3/14) was 21%, the “Day 14 T/C (whole body BLI)” value (4T1-Luc2-1A4 cells; 30 mg/kg PO) was 54% and the “Day 14 median T/C (caliper measurements)” value (4T1-Luc2-1A4 cells; 30 mg/kg PO) was 55%. The tolerability ([1]; 1 mg/kg PO) was “well-tolerated”, the treatment-related mortality ([1]; 1 mg/kg PO) was “no treatment-related mortality” and the “mean body weight loss” value ([1]; 1 mg/kg PO) was 2.1%. The tolerability ([1]; 10 mg/kg PO) was “well-tolerated”, the treatment-related mortality ([1]; 10 mg/kg PO) was “no treatment-related mortality” and the “mean body weight loss” value ([1]; 10 mg/kg PO) was 4.2%. For the same compound, the body weight change ([1]; 30 mg/kg PO) was “body weight gain”, the tolerability ([1]; 30 mg/kg PO) was “well-tolerated” and the treatment-related mortality ([1]; 30 mg/kg PO) was “no treatment-related mortality”. The “NK cells that produced IFN-γ upon ex-vivo re-stimulation, increase vs Control Group” value ([2]; NK cells isolated from spleens, 30 mg/kg PO) was 22%, the “NK cells that produced IFN-γ upon ex-vivo re-stimulation, increase vs Control Group” value ([2]; NK cells isolated from tumors, 30 mg/kg PO) was 75% and the “CD45+ cells that expressed PD-L1, increase vs Control Group” value ([2]; 10 mg/kg PO) was 8%. For the same compound, the “CD45+ cells that expressed PD-L1, increase vs Control Group” value ([2]; 30 mg/kg PO) was 16%, the “CD45+ cells expressing PD-L1, reduction vs Control Group” value ([2]; tumor, 1 mg/kg PO) was 14% and the “CD4+ T subset as a percent of total T cells, reduction vs Control Group” value ([2]; tumor, 10 mg/kg PO) was 51%. The “CD45+ cells expressing PD-L1, reduction vs Control Group” value ([2]; tumor, 10 mg/kg PO) was 5%, the “Treg subset as a percent of total T cells, reduction vs Control Group” value ([2]; tumor, 10 mg/kg PO) was 61% and the “Tumor-derived cells that expressed CD45, increase vs Control Group” value ([2]; tumor, 10 mg/kg PO) was 18%. The “CD4+ T subset as a percent of total T cells, reduction vs Control Group” value ([2]; tumor, 30 mg/kg PO) was 54%, the “G-MDSC subset, reduction vs Control Group” value ([2]; tumor, 30 mg/kg PO) was 18% and the “M2 MAC subset, increase vs Control Group” value ([2]; tumor, 30 mg/kg PO) was 72%. The “Treg subset as a percent of total T cells, reduction vs Control Group” value ([2]; tumor, 30 mg/kg PO) was 69% and the “Tumor-derived cells that expressed CD45, increase vs Control Group” value ([2]; tumor, 30 mg/kg PO) was 14%.
